From ChEMBL document CHEMBL1201862, “PubChem BioAssay data set” (2004)
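Each compound was tested at five concentrations against cells in 96-well plates for 48 hours. GI50 marks 50% less growth.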 Calls of active or inactive are those of the source. Cut-off read from the data, not from the text of the source: active = GI50 up to about 1.1 µM and inactive = higher.

Experiments:
Test in all cases: DTP human tumour cell line panel, 48 h
OVCAR-8 = system: OVCAR-8
Hs-578T = system: Hs-578T
K562 = system: K562
LOX IMVI = system: LOX IMVI
NCI-H460 = system: NCI-H460
DU-145 = system: DU-145
RXF 393 = system: RXF 393
UACC-62 = system: UACC-62
HCC 2998 = system: HCC 2998
MDA-N = system: MDA-N
NCI-H23 = system: NCI-H23
T47D = system: T47D
SK-MEL-28 = system: SK-MEL-28
M14 = system: M14
BT-549 = system: BT-549
Malme-3M = system: Malme-3M
OVCAR-5 = system: OVCAR-5
HL-60 = system: HL-60
SF-539 = system: SF-539
SF-268 = system: SF-268
NCI-H226 = system: NCI-H226
UO-31 = system: UO-31
NCI/ADR-RES = system: NCI/ADR-RES
A498 = system: A498
IGROV-1 = system: IGROV-1
PC-3 = system: PC-3
ACHN = system: ACHN
OVCAR-3 = system: OVCAR-3
SF-295 = system: SF-295
MCF7 = system: MCF7
SK-MEL-2 = system: SK-MEL-2
SN12C = system: SN12C
MDA-MB-435 = system: MDA-MB-435
HOP-92 = system: HOP-92
U-251 = system: U-251
CAKI-1 = system: CAKI-1
SK-MEL-5 = system: SK-MEL-5
HOP-62 = system: HOP-62
EKVX = system: EKVX
HCT-15 = system: HCT-15
SNB-75 = system: SNB-75
OVCAR-4 = system: OVCAR-4
TK-10 = system: TK-10
KM12 = system: KM12
COLO 205 = system: COLO 205
SW-620 = system: SW-620
SR = system: SR
HCT-116 = system: HCT-116
786-0 = system: 786-0
NCI-H522 = system: NCI-H522
RPMI-8226 = system: RPMI-8226
SNB-19 = system: SNB-19
HT-29 = system: HT-29
SK-OV-3 = system: SK-OV-3
MDA-MB-231 = system: MDA-MB-231
CCRF-CEM = system: CCRF-CEM
A549 = system: A549
MOLT-4 = system: MOLT-4
UACC-257 = system: UACC-257

SMILES: CCOP(=O)(OCC)C(Cc1cn(S(=O)(=O)c2ccc(C)cc2)cn1)C(=O)O (configuration not stated)
- GI50 (OVCAR-8): > 100 µM (inactive)
- GI50 (Hs-578T): > 100 µM (inactive)
- GI50 (K562): > 100 µM (inactive)
- GI50 (LOX IMVI): > 100 µM (inactive)
- GI50 (NCI-H460): > 100 µM (inactive)
- GI50 (DU-145): > 100 µM (inactive)
- GI50 (RXF 393): > 100 µM (inactive)
- GI50 (UACC-62): > 100 µM (inactive)
- GI50 (HCC 2998): > 100 µM (inactive)
- GI50 (MDA-N): > 100 µM (inactive)
- GI50 (NCI-H23): > 100 µM (inactive)
- GI50 (T47D): > 100 µM (inactive)
- GI50 (SK-MEL-28): > 100 µM (inactive)
- GI50 (M14): > 100 µM (inactive)
- GI50 (BT-549): > 100 µM (inactive)
- GI50 (Malme-3M): > 100 µM (inactive)
- GI50 (OVCAR-5): > 100 µM (inactive)
- GI50 (HL-60): > 100 µM (inactive)
- GI50 (SF-539): > 100 µM (inactive)
- GI50 (SF-268): > 100 µM (inactive)
- GI50 (NCI-H226): > 100 µM (inactive)
- GI50 (UO-31): > 100 µM (inactive)
- GI50 (NCI/ADR-RES): > 100 µM (inactive)
- GI50 (A498): > 100 µM (inactive)
- GI50 (IGROV-1): > 100 µM (inactive)
- GI50 (PC-3): > 100 µM (inactive)
- GI50 (ACHN): > 100 µM (inactive)
- GI50 (OVCAR-3): > 100 µM (inactive)
- GI50 (SF-295): > 100 µM (inactive)
- GI50 (MCF7): > 100 µM (inactive)
- GI50 (SK-MEL-2): > 100 µM (inactive)
- GI50 (SN12C): > 100 µM (inactive)
- GI50 (MDA-MB-435): > 100 µM (inactive)
- GI50 (HOP-92): > 100 µM (inactive)
- GI50 (U-251): > 100 µM (inactive)
- GI50 (CAKI-1): > 100 µM (inactive)
- GI50 (SK-MEL-5): > 100 µM (inactive)
- GI50 (HOP-62): > 100 µM (inactive)
- GI50 (EKVX): > 100 µM (inactive)
- GI50 (HCT-15): > 100 µM
- GI50 (SNB-75): > 100 µM (inactive)
- GI50 (OVCAR-4): > 100 µM (inactive)
- GI50 (TK-10): > 100 µM (inactive)
- GI50 (KM12): > 100 µM (inactive)
- GI50 (COLO 205): > 100 µM (inactive)
- GI50 (SW-620): > 100 µM (inactive)
- GI50 (SR): > 100 µM (inactive)
- GI50 (HCT-116): > 100 µM (inactive)
- GI50 (786-0): > 100 µM (inactive)
- GI50 (NCI-H522): > 100 µM (inactive)
- GI50 (RPMI-8226): > 100 µM (inactive)
- GI50 (SNB-19): > 100 µM (inactive)
- GI50 (HT-29): > 100 µM (inactive)
- GI50 (SK-OV-3): > 100 µM (inactive)
- GI50 (MDA-MB-231): > 100 µM (inactive)
- GI50 (CCRF-CEM): > 100 µM (inactive)
- GI50 (A549): > 100 µM (inactive)
- GI50 (MOLT-4): > 100 µM (inactive)

SMILES: C/C1=C\C=C(\C(C)C)CC/C(C(=O)O)=C\CC/C(C)=C/CC1 [NEOCROTOCEMBRANEIC ACID]
- GI50 (OVCAR-8): 31.2 µM (inactive)
- GI50 (Hs-578T): 43.6 µM (inactive)
- GI50 (K562): 26.1 µM (inactive)
- GI50 (LOX IMVI): 20.5 µM (inactive)
- GI50 (NCI-H460): 17.7 µM (inactive)
- GI50 (DU-145): 33.1 µM (inactive)
- GI50 (RXF 393): 20.7 µM (inactive)
- GI50 (UACC-62): 13.1 µM (inactive)
- GI50 (HCC 2998): 18.7 µM (inactive)
- GI50 (MDA-N): 28.8 µM (inactive)
- GI50 (NCI-H23): 20.7 µM (inactive)
- GI50 (T47D): 34.4 µM (inactive)
- GI50 (SK-MEL-28): 24.6 µM (inactive)
- GI50 (M14): 29 µM (inactive)
- GI50 (BT-549): 27.5 µM (inactive)
- GI50 (Malme-3M): 23.2 µM (inactive)
- GI50 (OVCAR-5): 29.3 µM (inactive)
- GI50 (UACC-257): 22.5 µM (inactive)
- GI50 (HL-60): 24.8 µM (inactive)
- GI50 (SF-539): 18.5 µM (inactive)
- GI50 (SF-268): 32.9 µM (inactive)
- GI50 (NCI-H226): 20.9 µM (inactive)
- GI50 (UO-31): 30.3 µM (inactive)
- GI50 (NCI/ADR-RES): 30.5 µM (inactive)
- GI50 (A498): 17.6 µM (inactive)
- GI50 (IGROV-1): 42 µM (inactive)
- GI50 (PC-3): 18 µM (inactive)
- GI50 (ACHN): 34.3 µM (inactive)
- GI50 (OVCAR-3): 16.6 µM (inactive)
- GI50 (SF-295): 20 µM (inactive)
- GI50 (MCF7): 16.9 µM (inactive)
- GI50 (SK-MEL-2): 18.1 µM (inactive)
- GI50 (SN12C): 21.2 µM (inactive)
- GI50 (MDA-MB-435): 23.6 µM (inactive)
- GI50 (HOP-92): 19.4 µM (inactive)
- GI50 (U-251): 16.9 µM (inactive)
- GI50 (CAKI-1): 31.7 µM (inactive)
- GI50 (SK-MEL-5): 19.3 µM (inactive)
- GI50 (HOP-62): 22.8 µM (inactive)
- GI50 (EKVX): 27.1 µM (inactive)
- GI50 (HCT-15): 21.4 µM
- GI50 (SNB-75): 33.7 µM (inactive)
- GI50 (OVCAR-4): 33.4 µM (inactive)
- GI50 (TK-10): 31.8 µM (inactive)
- GI50 (KM12): 20.6 µM (inactive)
- GI50 (COLO 205): 23.4 µM (inactive)
- GI50 (SW-620): 35.8 µM (inactive)
- GI50 (SR): 19.5 µM (inactive)
- GI50 (HCT-116): 15.9 µM (inactive)
- GI50 (786-0): 24.6 µM (inactive)
- GI50 (NCI-H522): 19.3 µM (inactive)
- GI50 (RPMI-8226): 19.3 µM (inactive)
- GI50 (SNB-19): 24.9 µM (inactive)
- GI50 (HT-29): 32 µM (inactive)
- GI50 (SK-OV-3): 27.6 µM (inactive)
- GI50 (MDA-MB-231): 20.7 µM (inactive)
- GI50 (CCRF-CEM): 19.5 µM (inactive)
- GI50 (A549): 30.2 µM (inactive)
- GI50 (MOLT-4): 19.1 µM (inactive)
